What was measured:
[1] = tested on: total cholesterol value in the blood serum; experiment: Total cholesterol in blood serum of mice fed a diet enriched with cholesterol and bile acids (Table 1); type: in vivo; conditions: 0.2% in diet, oral, 8 to 12 days
Experimental: The effectiveness of the compounds was tested by using mice fed on a specific diet which was enriched with cholesterol and bile acids. […] The amide compound as well was mixed with the specific diet in an amount of 0.2%, and continuously administered orally for 8 to 12 days. Then the total cholesterol value in the blood serum of the animals was evaluated.

liver cholesterol = experiment: Liver cholesterol (deposition of cholesterol and fat in the liver) of mice fed a cholesterol-rich diet (Table 1); type: in vivo; conditions: 0.2% in diet, oral, 8 to 12 days
[2] = experiment [VIII], control 2652

Molecule CCCCC/C=C\C/C=C\CCCCCCCC(=O)NC(C)c1ccc(Br)cc1 (stereo not shown) has a Serum cholesterol ([1]; experiment [III], control 471) of 322 mg % and a Liver cholesterol (liver cholesterol; experiment [III], control not given) of 1341 mg/100 g.

CCC(NC(=O)CCCCCCCCCCCCCCC(C)C)c1ccc(C(C)(C)C)cc1 (stereo not shown) showed a Serum cholesterol ([1]; experiment [IV], control 595) of 297 mg % and a Liver cholesterol (liver cholesterol; experiment [IV], control 3145) of 905 mg/100 g.

CCCCC/C=C\C/C=C\CCCCCCCC(=O)NC(C)c1ccccc1[N+](=O)[O-] (stereo not shown) showed a Serum cholesterol ([1]; experiment [VIII], control 472) of 299 mg % and a Liver cholesterol (liver cholesterol; [2]) of 1003 mg/100 g.

CCCCC/C=C\C/C=C\CCCCCCCC(=O)NC(C)c1cccc([N+](=O)[O-])c1 (stereo not shown) showed a Serum cholesterol ([1]; experiment [VIII], control 472) of 287 mg % and a Liver cholesterol (liver cholesterol; [2]) of 992 mg/100 g.

CCCCC/C=C\C/C=C\CCCCCCCC(=O)NC(CC)c1ccc([N+](=O)[O-])cc1 (stereo not shown) was tested, and the Serum cholesterol ([1]; experiment [VIII], control 472) was 331 mg % and the Liver cholesterol (liver cholesterol; [2]) was 980 mg/100 g.

CC/C=C\C/C=C\C/C=C\CCCCCCCC(=O)NC(CC)c1ccccc1[N+](=O)[O-] (stereo not shown) showed a Serum cholesterol ([1]; experiment [VIII], control 472) of 300 mg % and a Liver cholesterol (liver cholesterol; [2]) of 1091 mg/100 g.

Molecule CCCCCCCC/C=C\CCCCCCCC(=O)NC(C)c1ccccc1[N+](=O)[O-] (stereo not shown) has a Serum cholesterol ([1]; experiment [VIII], control 472) of 309 mg % and a Liver cholesterol (liver cholesterol; [2]) of 1113 mg/100 g.

With CCCCCCCC/C=C\CCCCCCCC(=O)NC12CC3CC(CC(C3)C1)C2 the Serum cholesterol ([1]; experiment [IX], control 336) was 294 mg % and the Liver cholesterol (liver cholesterol; experiment [IX], control 2200) was 1120 mg/100 g.

For CC/C=C\C/C=C\C/C=C\CCCCCCCC(=O)NC12CC3CC(CC(C3)C1)C2, the Serum cholesterol ([1]; experiment [IX], control 336) was 279 mg % and the Liver cholesterol (liver cholesterol; experiment [IX], control 2200) was 750 mg/100 g.

CCCCCCCC/C=C\CCCCCCCC(=O)N(C1CCCCC1)C1CCCCC1 showed a Serum cholesterol ([1]; experiment [XI], control 595) of 309 mg % and a Liver cholesterol (liver cholesterol; experiment [XI], control 3451) of 929 mg/100 g.

CCCCCCCC/C=C\CCCCCCCC(=O)NC(C)c1ccc(CC)cc1 (racemic) showed a Serum cholesterol ([1]; experiment [X], control 554) of 304 mg % and a Liver cholesterol (liver cholesterol; experiment [X], control 3293) of 1010 mg/100 g.

For CCCCCCCC/C=C\CCCCCCCC(=O)NC(C)c1ccc(Br)cc1 (racemic), the Serum cholesterol ([1]; experiment [XI], control 595) was 299 mg % and the Liver cholesterol (liver cholesterol; experiment [XI], control 3451) was 1039 mg/100 g.

In the case of CCCCCCCC/C=C\CCCCCCCC(=O)NC(CC)c1cccc([N+](=O)[O-])c1 (racemic), the Serum cholesterol ([1]; experiment [XI], control 595) is reported as 362 mg % and the Liver cholesterol (liver cholesterol; experiment [XI], control 3451) is reported as 1342 mg/100 g.

For CCCCCCCC/C=C\CCCCCCCC(=O)NC(C)c1ccc(OC)cc1 (racemic), the Serum cholesterol ([1]; experiment [XI], control 595) was 382 mg % and the Liver cholesterol (liver cholesterol; experiment [XI], control 3451) was 1210 mg/100 g.

For CC/C=C\C/C=C\C/C=C\CCCCCCCC(=O)NC(C)c1cccc(Cl)c1 (racemic), the Serum cholesterol ([1]; experiment [XI], control 595) was 309 mg % and the Liver cholesterol (liver cholesterol; experiment [XI], control 3451) was 1125 mg/100 g.

CC/C=C\C/C=C\C/C=C\CCCCCCCC(=O)NC(CC)c1ccc(OC)cc1 (racemic) showed a Serum cholesterol ([1]; experiment [XI], control 595) of 325 mg % and a Liver cholesterol (liver cholesterol; experiment [XI], control 3451) of 1450 mg/100 g.

With CC(C)CCCCCCCCCCCCCCC(=O)NC(C)c1ccccc1 (single isomer, unassigned; (+)) [(+) N-(α-Methylbenzyl)-isostearamide] the Serum cholesterol ([1]; experiment [I], control 546) was 251 mg % and the Liver cholesterol (liver cholesterol; experiment [I], control 3585) was 761 mg/100 g.

Molecule CCCCC/C=C\C/C=C\CCCCCCCC(=O)NC(C)c1ccccc1 (single isomer, unassigned; (+)) [(+) N-(α-Methylbenzyl)-linoleamide] has a Serum cholesterol ([1]; experiment [I], control 546) of 267 mg % and a Liver cholesterol (liver cholesterol; experiment [I], control 3585) of 764 mg/100 g.

CC/C=C\C/C=C\C/C=C\CCCCCCCC(=O)NC(C)c1ccccc1 (single isomer, unassigned; (+)) [(+) N-(α-Methylbenzyl)-linolenamide] gave a Serum cholesterol ([1]; experiment [I], control 546) of 269 mg % and a Liver cholesterol (liver cholesterol; experiment [I], control 3585) of 784 mg/100 g.

Work on CCCCCCCC/C=C\CCCCCCCC(=O)NC(C)c1ccccc1 (single isomer, unassigned; (+)) [(+) N-(α-Methylbenzyl)-oleamide] yielded a Serum cholesterol ([1]; experiment [I], control 546) of 288 mg % and a Liver cholesterol (liver cholesterol; experiment [I], control 3585) of 797 mg/100 g.

CCCCC/C=C\C/C=C\CCCCCCCC(=O)NC(CC)c1ccccc1 (single isomer, unassigned; (-)) [(-) (α-Ethylbenzyl)-linoleamide] showed a Serum cholesterol ([1]; experiment [II], control 521) of 251 mg % and a Liver cholesterol (liver cholesterol; experiment [II], control 3308) of 821 mg/100 g.

CC(C)CCCCCCCCCCCCCCC(=O)NC(C)c1ccccc1 (single isomer, unassigned; (-)) [(-) (α-Methylbenzyl)-isostearamide] showed a Serum cholesterol ([1]; experiment [II], control 521) of 246 mg % and a Liver cholesterol (liver cholesterol; experiment [II], control 3308) of 777 mg/100 g.

Molecule CCCCC/C=C\C/C=C\CCCCCCCC(=O)NC(C)c1ccccc1 (single isomer, unassigned; (-)) [(-) (α-Methylbenzyl)-linoleamide] has a Serum cholesterol ([1]; experiment [II], control 521) of 286 mg % and a Liver cholesterol (liver cholesterol; experiment [II], control 3308) of 908 mg/100 g.
